Assay results taken from paper PMC10464555 (Journal of Enzyme Inhibition and Medicinal Chemistry, 2023).

Target: T1, sEH enzyme (Homo sapiens, UniProt P34913)
T1 sequence (P34913 1-555): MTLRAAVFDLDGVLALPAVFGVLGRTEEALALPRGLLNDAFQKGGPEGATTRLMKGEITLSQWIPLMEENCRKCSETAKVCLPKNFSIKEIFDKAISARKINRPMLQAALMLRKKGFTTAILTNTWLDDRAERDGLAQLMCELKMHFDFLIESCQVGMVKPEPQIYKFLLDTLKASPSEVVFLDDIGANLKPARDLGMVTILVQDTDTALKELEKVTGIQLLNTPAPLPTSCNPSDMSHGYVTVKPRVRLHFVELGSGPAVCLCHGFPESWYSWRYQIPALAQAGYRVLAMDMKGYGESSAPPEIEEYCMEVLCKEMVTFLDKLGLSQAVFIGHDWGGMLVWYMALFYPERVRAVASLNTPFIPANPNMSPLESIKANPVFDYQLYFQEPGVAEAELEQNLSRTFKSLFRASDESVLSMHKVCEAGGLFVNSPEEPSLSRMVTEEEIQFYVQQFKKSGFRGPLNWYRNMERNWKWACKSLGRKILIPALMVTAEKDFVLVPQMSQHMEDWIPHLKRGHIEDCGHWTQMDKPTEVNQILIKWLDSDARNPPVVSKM
Assay: sEH enzyme kinetics
Assay type: biochemical
Conditions: for Ki: Ki (μM), Dixon plots; for Inhibition type: Lineweaver–Burk plots

Row | Compound | Ki [µM] | Inhibition type
1 | O=C(CCCCCCCCc1ccc(O)cc1)c1c(O)cccc1O [Compound 19, malabaricone B] | 20.9 | Competitive
2 | O=C(CCCCCCCCc1ccc(O)c(O)c1)c1c(O)cccc1O [Compound 20, malabaricone C] | 11.1 | Competitive
